Laboratory results from PubChem BioAssay AID2060890 (Molecular Pharmacology Branch, DTP, NCI, 2025).

Test system: LG0703-F948-PDC complex spheroid viability
Test: Anticancer human tumor LG0703-F948-PDC patient-derived lung adenocarcinoma cell line growth inhibition [RAS]
Conditions: for IC50: curve of first compound; for viability, T/C: stronger effect = lower value
In short: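 Multi-cell-type spheroids: tumor cells plus HUVEC endothelial cells and mesenchymal stem cells. RAS-pathway inhibitors were combined with targeted agents, each dosed in half-log steps down from clinical Cmax, or from 10 microM when Cmax was unknown.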
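Further: spheroids exposed to agents for 7 days.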
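Wherever viability, T/C is given: 100% = DMSO vehicle wells.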

CCc1c2c(nc3ccc(O)cc13)-c1cc3c(c(=O)n1C2)COC(=O)[C@]3(O)CC + C=CC(=O)N1CCN(c2nc(OCC3CCCN3C)nc3c(F)c(-c4nc(N)cc(C)c4C(F)(F)F)c(Cl)cc23)C(C)C1
IC50 (second compound 0.00316 µM): 41.8 nM | IC50 (second compound 0.01 µM): 51.3 nM | IC50 (second compound 0.0316 µM): 37.6 nM | IC50 (second compound 0.1 µM): 30.5 nM | IC50 (second compound 0.316 µM): 44.4 nM | IC50 (second compound 1 µM): 50.8 nM | viability, T/C (second compound 0.00316 µM, first compound 0.000949 µM): 102% | viability, T/C (second compound 0.00316 µM, first compound 0.003 µM): 99.9% | viability, T/C (second compound 0.00316 µM, first compound 0.00949 µM): 77.8% | viability, T/C (second compound 0.00316 µM, first compound 0.03 µM): 54.5% | viability, T/C (second compound 0.00316 µM, first compound 0.0949 µM): 38.3% | viability, T/C (second compound 0.00316 µM, first compound 0.3 µM): 22.9% | viability, T/C (second compound 0.01 µM, first compound 0.000949 µM): 105% | viability, T/C (second compound 0.01 µM, first compound 0.003 µM): 87.5% | viability, T/C (second compound 0.01 µM, first compound 0.00949 µM): 80.7% | viability, T/C (second compound 0.01 µM, first compound 0.03 µM): 61.3% | viability, T/C (second compound 0.01 µM, first compound 0.0949 µM): 36.4% | viability, T/C (second compound 0.01 µM, first compound 0.3 µM): 20.7% | viability, T/C (second compound 0.0316 µM, first compound 0.000949 µM): 102% | viability, T/C (second compound 0.0316 µM, first compound 0.003 µM): 106% | viability, T/C (second compound 0.0316 µM, first compound 0.00949 µM): 92.1% | viability, T/C (second compound 0.0316 µM, first compound 0.03 µM): 53% | viability, T/C (second compound 0.0316 µM, first compound 0.0949 µM): 34% | viability, T/C (second compound 0.0316 µM, first compound 0.3 µM): 21% | viability, T/C (second compound 0.1 µM, first compound 0.000949 µM): 97.8% | viability, T/C (second compound 0.1 µM, first compound 0.003 µM): 103% | viability, T/C (second compound 0.1 µM, first compound 0.00949 µM): 63.4% | viability, T/C (second compound 0.1 µM, first compound 0.03 µM): 53.1% | viability, T/C (second compound 0.1 µM, first compound 0.0949 µM): 35.8% | viability, T/C (second compound 0.1 µM, first compound 0.3 µM): 21.2% | viability, T/C (second compound 0.316 µM, first compound 0.000949 µM): 104% | viability, T/C (second compound 0.316 µM, first compound 0.003 µM): 103% | viability, T/C (second compound 0.316 µM, first compound 0.00949 µM): 83.6% | viability, T/C (second compound 0.316 µM, first compound 0.03 µM): 58.8% | viability, T/C (second compound 0.316 µM, first compound 0.0949 µM): 34.4% | viability, T/C (second compound 0.316 µM, first compound 0.3 µM): 24.3% | viability, T/C (second compound 1 µM, first compound 0.000949 µM): 106% | viability, T/C (second compound 1 µM, first compound 0.003 µM): 98.8% | viability, T/C (second compound 1 µM, first compound 0.00949 µM): 91% | viability, T/C (second compound 1 µM, first compound 0.03 µM): 57.3% | viability, T/C (second compound 1 µM, first compound 0.0949 µM): 39.8% | viability, T/C (second compound 1 µM, first compound 0.3 µM): 20.1%

CC(C)NCC(C(=O)N1CCN(c2ncnc3c2C(C)CC3O)CC1)c1ccc(Cl)cc1 (configuration not stated) + C=CC(=O)N1CCN(c2nc(OCC3CCCN3C)nc3c(F)c(-c4nc(N)cc(C)c4C(F)(F)F)c(Cl)cc23)C(C)C1
IC50 (second compound 0.00316 µM): 577 nM | IC50 (second compound 0.01 µM): 656 nM | IC50 (second compound 0.0316 µM): 625 nM | IC50 (second compound 0.1 µM): 650 nM | IC50 (second compound 0.316 µM): 640 nM | IC50 (second compound 1 µM): 696 nM | viability, T/C (second compound 0.00316 µM, first compound 0.0316 µM): 97% | viability, T/C (second compound 0.00316 µM, first compound 0.1 µM): 77.6% | viability, T/C (second compound 0.00316 µM, first compound 0.316 µM): 56.9% | viability, T/C (second compound 0.00316 µM, first compound 1 µM): 44.7% | viability, T/C (second compound 0.00316 µM, first compound 3.16 µM): 28.1% | viability, T/C (second compound 0.00316 µM, first compound 10 µM): 21.6% | viability, T/C (second compound 0.01 µM, first compound 0.0316 µM): 96.4% | viability, T/C (second compound 0.01 µM, first compound 0.1 µM): 78.8% | viability, T/C (second compound 0.01 µM, first compound 0.316 µM): 56.2% | viability, T/C (second compound 0.01 µM, first compound 1 µM): 46.5% | viability, T/C (second compound 0.01 µM, first compound 3.16 µM): 31.6% | viability, T/C (second compound 0.01 µM, first compound 10 µM): 20.8% | viability, T/C (second compound 0.0316 µM, first compound 0.0316 µM): 100% | viability, T/C (second compound 0.0316 µM, first compound 0.1 µM): 79.9% | viability, T/C (second compound 0.0316 µM, first compound 0.316 µM): 61.9% | viability, T/C (second compound 0.0316 µM, first compound 1 µM): 40.4% | viability, T/C (second compound 0.0316 µM, first compound 3.16 µM): 33.3% | viability, T/C (second compound 0.0316 µM, first compound 10 µM): 23.3% | viability, T/C (second compound 0.1 µM, first compound 0.0316 µM): 87.3% | viability, T/C (second compound 0.1 µM, first compound 0.1 µM): 74.6% | viability, T/C (second compound 0.1 µM, first compound 0.316 µM): 62% | viability, T/C (second compound 0.1 µM, first compound 1 µM): 42% | viability, T/C (second compound 0.1 µM, first compound 3.16 µM): 31.6% | viability, T/C (second compound 0.1 µM, first compound 10 µM): 21.2% | viability, T/C (second compound 0.316 µM, first compound 0.0316 µM): 103% | viability, T/C (second compound 0.316 µM, first compound 0.1 µM): 82% | viability, T/C (second compound 0.316 µM, first compound 0.316 µM): 58.5% | viability, T/C (second compound 0.316 µM, first compound 1 µM): 44.2% | viability, T/C (second compound 0.316 µM, first compound 3.16 µM): 29.8% | viability, T/C (second compound 0.316 µM, first compound 10 µM): 18.5% | viability, T/C (second compound 1 µM, first compound 0.0316 µM): 104% | viability, T/C (second compound 1 µM, first compound 0.1 µM): 97% | viability, T/C (second compound 1 µM, first compound 0.316 µM): 61.4% | viability, T/C (second compound 1 µM, first compound 1 µM): 44.9% | viability, T/C (second compound 1 µM, first compound 3.16 µM): 25.8% | viability, T/C (second compound 1 µM, first compound 10 µM): 15.1%

CC1(O)CCCC1n1c(=O)c(C(F)F)cc2cnc(NC3CCN(S(C)(=O)=O)CC3)nc21 (configuration not stated)
viability, T/C (compound 0.1 µM): 94.2% [middle of 4 runs] | viability, T/C (compound 0.316 µM): 86.8% [middle of 4 runs] | viability, T/C (compound 1 µM): 96% [middle of 4 runs]
